Structures are written as SMILES. Where “and” joins values, the source holds several entries; their conditions need not be identical. Equal entries are not always repeated. Entries after “also recorded” stand apart in the source; their conditions may differ. Where two headings read alike, the source gives them in different places.

The test system of one data set is Vero cells. The settings on record: African green monkey.
The subject of another data set is HSV-1, strain MacIntyre. Kind of data set: Plaque inhibition against HSV-1 strain MacIntyre in A549 cells. It counts as cell-based, herpes simplex virus type 1. The settings on record: for Percent plaque area (ImageJ): A549 cells, duplicate wells. The protocol:
Background: […] Again, acyclovir was included as a positive control. […] Acyclovir was tested at 0.002 and 0.05 mM. A control, with no treatment was also evaluated. […] After virus adsorption, media was removed and monolayers overlaid with semisolid agarose media containing each drug dilution. Monolayers were fixed and stained with crystal violet to visualize virus plaques. Pictures of the test plates were submitted to client for image analysis. Percent plaque area was calculated using ImageJ, version 1.52i.

For data set [1], the system named is HRSV. In words: Reduction of HRSV infection in primary human airway epithelial (HAE) cultures (luciferase). It counts as cell-based, human respiratory syncytial virus. The settings on record: 0.9 and 2.7 mg/ml, days 1 and 3 (24 and 72 hours) post inoculation.
The test system of data set [2] is transforming growth factor beta (TGFβ). In words: Cotton rat RSV lung infection: lung TGFβ gene expression by PCR. The settings on record: 0.5% soln, 50 μL IN BID, day 5, vs PBS. Format: in vivo. The protocol: (§1) Methods: In view of the reduction in hRSV cellular infection in A549 and human airway epithelial cells, an in vivo experiment in the Cotton Rat was carried out using RSVA2 infection. In this study, adult male cotton rats (6-8 weeks of age) were divided into groups of 4 animals each. Animals were pre-bled for serum collection and ear tagged for identification. All animals were infected via intranasal instillation with 0.1 mL of RSV/A2 at 10^5 plaque-forming units (pfu) per animal.
(§2) At each treatment the animals received 50 μL. On day 5, the animals were sacrificed for viral lung titers and cytokine analysis. Interferon gamma (IFNγ) and transforming growth factor beta (TGFβ) gene expression were analyzed by PCR. The cytokine mRNA level was normalized relative to beta actin.

The next data set concerns Interferon gamma (IFNγ). In words: Cotton rat RSV lung infection: lung IFNγ gene expression by PCR. The following applies: 0.5% soln, 50 μL IN BID, day 5, vs PBS. Format: in vivo. The protocol:
as §1, §2

The target in data set [3] is purified recombinant GST-SIRT6 protein (Homo sapiens, UniProt Q8N6T7). The settings on record: first study. The protocol: This first set of studies was performed using a Western blot method (Rahnasto-Rilla, 2016, Methods Mol. Biol., 1436:259-269) for the in vitro evaluation of Sirt6 deacetylation activity. […] Acetylation level was detected with anti-H3K9Ac antibody and normalized to total H3 histone (FIG. 5 (b)).

The test system of data set [4] is HRSV. In words: Inhibition of HRSV replication in A549 cells (RSV with Renilla luciferase reporter). It counts as cell-based, human respiratory syncytial virus. (Reporter assays use an easily measured gene product as a stand-in for the process of interest.)
The subject of the next data set is Sirt6. The settings on record: 60 μM.
Another data set concerns RSV/A2. In words: Cotton rat RSV lung infection: lung viral titer. Format: in vivo. The settings on record: 0.5% soln, 50 μL IN BID, day 5, vs PBS. The protocol:
as §1, §2

In data set [5] the test system is HRSV. In words: Reduction of HRSV cellular infection in A549 cells (RSV with GFP reporter, infected cells counted). Format: cell-based, human respiratory syncytial virus.

Chain of purified recombinant GST-SIRT6 protein (Q8N6T7 whole entry): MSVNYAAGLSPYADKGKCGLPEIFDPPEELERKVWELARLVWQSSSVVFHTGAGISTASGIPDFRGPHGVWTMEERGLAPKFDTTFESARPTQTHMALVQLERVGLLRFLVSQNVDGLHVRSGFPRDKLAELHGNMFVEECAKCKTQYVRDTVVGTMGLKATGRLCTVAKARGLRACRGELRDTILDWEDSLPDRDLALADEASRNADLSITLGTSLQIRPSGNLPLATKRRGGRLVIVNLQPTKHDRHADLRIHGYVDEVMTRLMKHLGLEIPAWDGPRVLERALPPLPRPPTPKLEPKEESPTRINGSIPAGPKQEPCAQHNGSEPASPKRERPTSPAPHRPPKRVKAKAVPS

As to `Nc1nc2c(ncn2COCCO)c(=O)[nH]1` [Acyclovir], the “Toxicity Grade on Vero Cells” value in the data set on Vero cells (0.1 μM), in the data set with Vero cells (2 μM) and in the data set on Vero cells (50 μM) was 0 in each case. Further, the “HSV-1 plaques observed in wells” value in the data set on HSV-1, strain MacIntyre (Acyclovir 0.002 mM) is on record as “more smaller plaques, but not as many nor as large as the untreated wells”; in the data set on HSV-1, strain MacIntyre (acyclovir 0.05 mM), “few small breakthrough plaques”.
As for `Nc1ncnc2c1ncn2[C@@H]1O[C@H](COP(=O)([O-])OP(=O)([O-])OC[C@H]2OC(O)[C@H](O)[C@@H]2O)[C@@H](O)[C@H]1O.[Li+].[Li+]` (some centres unmarked) [Li2-ADPR, dilithium ADPR], in the data set with HRSV [1], the “RSV replication / percentage of cells infected in HAE cultures (luciferase activity)” value was “significantly inhibiting; also recorded: significant reduction”. Moreover, in [2], the “lung TGFβ mRNA (normalized to beta actin)” value is listed as “significant decrease”. In the data set with Interferon gamma (IFNγ), the “lung IFNγ mRNA (normalized to beta actin)” value is given as “increase”. The “Sirt6 deacetylation activity (inverse of H3K9Ac / total H3)” value in data set [3] (between 0.01 and 1 μM) is “increasing activation”; in data set [3] (concentrations of 10 μM and above) it was “variable activity”. Also, the “inhibition of RSV replication (luminescence), difference” value in the data set with HRSV [4] (2.7 mg/ml) is given as “five”. Further, the “HRSV replication (luminescence) with increasing concentrations” value in the data set with HRSV [4] (days 1 and 2 after infection) was “significant dose-dependent inhibition”. Further, the “Sirt6 protein concentration relative to baseline (No Treat lane)” value is listed as 155% in the data set on Sirt6 (30 minutes) and “returned to baseline” with Sirt6 (two hours). The “Percent plaque area (ImageJ)” value with HSV-1, strain MacIntyre (0.1 mM) is 8.1% and 8.3%; in the data set on HSV-1, strain MacIntyre (0.4 mM), 14.3% and 7.3%; in the data set on HSV-1, strain MacIntyre (1.2 mM), 4.8% and 3.8%. The “HSV-1 plaques observed in wells” value with HSV-1, strain MacIntyre (Li2-ADPR 0.1 mM) is “plaques similar in number and size as the untreated wells”; in the data set on HSV-1, strain MacIntyre (Li2-ADPR increased from 0.4 to 1.2 mM) it was “the plaque number decreased and the plaque size decreased”. Further, the “lung RSV titers” value in the data set on RSV/A2 is given as “reduced”. For the same compound, the “reduction of percentage of A549 cells infected with HRSV” value with HRSV [5] (0.1 mg/ml) is given as around 50%; in the data set on HRSV [5] (2.7 mg/ml), around 85%. In addition, in the data set with HRSV [5] (days 1 and 2 after inoculation), the “percentage of A549 cells infected with increasing concentrations” value is recorded as “significant reduction”.

Values taken from US12233083B2, “Methods for the use of 5′-adenosine diphosphate ribose (ADPR)” (Invirsa, Inc., priority 2018, dated 2025).
